The target in data set [1] is T1, Hexokinase-1 (Homo sapiens) (UniProt P19367).
T1 sequence (whole entry): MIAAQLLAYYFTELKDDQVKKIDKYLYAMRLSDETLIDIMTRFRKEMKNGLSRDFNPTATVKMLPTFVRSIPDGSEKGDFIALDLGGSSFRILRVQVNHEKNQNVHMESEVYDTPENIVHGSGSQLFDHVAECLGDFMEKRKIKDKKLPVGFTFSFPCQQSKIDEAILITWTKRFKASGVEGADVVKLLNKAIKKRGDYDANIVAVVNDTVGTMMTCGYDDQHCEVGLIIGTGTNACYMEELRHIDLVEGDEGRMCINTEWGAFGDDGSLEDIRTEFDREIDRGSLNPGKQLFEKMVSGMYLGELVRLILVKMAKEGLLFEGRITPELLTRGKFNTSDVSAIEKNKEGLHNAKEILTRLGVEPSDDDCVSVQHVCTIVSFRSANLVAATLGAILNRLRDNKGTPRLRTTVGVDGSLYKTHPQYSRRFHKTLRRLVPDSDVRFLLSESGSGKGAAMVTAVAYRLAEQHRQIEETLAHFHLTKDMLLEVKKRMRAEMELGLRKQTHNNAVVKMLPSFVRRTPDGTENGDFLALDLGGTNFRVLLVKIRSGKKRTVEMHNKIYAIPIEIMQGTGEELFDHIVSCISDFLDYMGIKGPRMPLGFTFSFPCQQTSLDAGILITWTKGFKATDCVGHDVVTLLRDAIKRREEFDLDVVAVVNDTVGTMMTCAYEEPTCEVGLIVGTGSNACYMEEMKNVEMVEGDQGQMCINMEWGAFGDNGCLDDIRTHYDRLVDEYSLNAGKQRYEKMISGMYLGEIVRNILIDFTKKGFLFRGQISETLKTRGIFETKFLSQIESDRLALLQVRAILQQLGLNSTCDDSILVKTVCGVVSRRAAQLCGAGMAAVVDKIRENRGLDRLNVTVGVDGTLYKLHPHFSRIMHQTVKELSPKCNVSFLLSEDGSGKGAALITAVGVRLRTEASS
In words: Binding affinity to hexokinase-1 in human MCF7 cell lysate assessed as HK-1 pull down by western blotting based Co-immunoprecipitation assay. The data set is classed as subcellular. As to conditions: filed as antagonist.

The species named for data set [2] is Homo sapiens. The experiment in a line: Selectivity ratio of relative binding affinity for human ERalpha to relative binding affinity for human ERbeta.
Data set [3] deals with Estrogen receptor beta (Homo sapiens) (UniProt Q92731). The experiment in a line: Relative binding affinity to human ERbeta measured after 2 hrs by competitive fluorometric binding assay relative to estradiol.
Estrogen receptor beta (Homo sapiens), sequence (Q92731 whole entry): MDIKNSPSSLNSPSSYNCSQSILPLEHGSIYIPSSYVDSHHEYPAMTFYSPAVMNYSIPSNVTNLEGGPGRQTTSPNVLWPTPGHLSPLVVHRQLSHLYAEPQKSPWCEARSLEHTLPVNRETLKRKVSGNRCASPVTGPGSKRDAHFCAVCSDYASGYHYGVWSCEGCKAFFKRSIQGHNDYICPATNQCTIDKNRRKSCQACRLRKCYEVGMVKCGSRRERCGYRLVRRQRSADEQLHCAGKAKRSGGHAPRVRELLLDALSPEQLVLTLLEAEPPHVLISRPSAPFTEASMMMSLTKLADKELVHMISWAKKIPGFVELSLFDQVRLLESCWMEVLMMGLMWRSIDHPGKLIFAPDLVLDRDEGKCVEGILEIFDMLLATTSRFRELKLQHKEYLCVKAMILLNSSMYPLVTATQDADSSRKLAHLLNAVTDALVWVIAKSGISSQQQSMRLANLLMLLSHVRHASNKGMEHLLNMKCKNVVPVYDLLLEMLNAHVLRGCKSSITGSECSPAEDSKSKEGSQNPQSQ
Data set [4] relates to MDA-MB-231. The experiment in a line: cells. The note with it: Homo sapiens, MDA-MB-231, 72 h.
Description: Antiproliferative activity against human MDA-MB-231 cells assessed as reduction in cell viability measured after 72 hrs by Cell Counting Kit-8 assay
A short description of data set [5]: Selectivity index, ratio of IC50 for human MCF-10A cells to IC50 for human MCF-7 cells. The data set is classed as toxicity. As to conditions: MCF-10A cells and MCF-7 cells, read-out: Ratio IC50.
In data set [6] the test system is MCF7. In words: cells. The note with it: Homo sapiens, MCF7, 72 h.
Description: Antiproliferative activity against human MCF7 cells assessed as reduction in cell viability measured after 72 hrs by Cell Counting Kit-8 assay
The nature of data set [7]: Antiproliferative activity against tamoxifen-resistant human LCC2 cells assessed as reduction in cell viability measured after 72 hrs by Cell Counting Kit-8 assay. Type of data set: functional, cell-based. As to conditions: LCC2, 72 h.
Data set [8] can be described thus: Antiproliferative activity against human MCF-10A cells assessed as reduction in cell viability measured after 72 hrs by Cell Counting Kit-8 assay. The data set is classed as toxicity, cell-based.
In data set [9] the test system is MCF7. The experiment in a line: Antitumor activity against human MCF7 cells xenografted in BALB/C mouse assessed as increase in tumor necrosis area at 20 mg/kg, po […]. Type of data set: functional, organism-based.
In data set [10] the test system is MCF7. In words: Antitumor activity against human MCF7 cells xenografted in BALB/C mouse assessed as decrease in cell proliferation at 20 mg/kg, po by Ki67 staining based immunohistochemical analysis. The data set is classed as functional, organism-based.
In data set [11] the test system is MCF7. The experiment in a line: Induction of apoptosis in human MCF7 cells at 20 uM incubated for 48 hrs by annexin V-FITC staining based flow cytometry. The data set is classed as functional, cell-based.

Calls of active or inactive are those of the source. The calls are words filed in the database; no cut-off is given here. Where only a bound is given, the exact number is not on record here.

The values below come from ChEMBL document CHEMBL5154927, “Discovery of Novel Bicyclic Phenylselenyl-Containing Hybrids: An Orally Bioavailable, Potential, and Multiacting Class of Estrogen Receptor Modulators against Endocrine-Resistant Breast Cancer” (J Med Chem, 2022).

As to `O=C(CCC[C@@H]1SC[C@@H]2NC(=O)N[C@@H]21)Nc1cccc2c(OS(=O)(=O)C3CC4OC3C(c3ccc(O)cc3)=C4c3ccc(O)cc3)cccc12` (some centres undefined), the outcome in data set [1] was Active. Further, the Ratio in [2] is 3.4. In data set [3], this compound yielded an RBA of 0.1%.
On to `O=S(=O)(Oc1ccc(Br)cc1)C1CC2OC1C(c1ccc(O)cc1)=C2c1ccc([Se]c2ccccc2)cc1` (centres undefined), for which the figures for the IC50 in data set [4], in [6] and in [7] were 17.4 µM, 550 nM and greater than 31 µM, respectively. Further, the selectivity ratio in data set [5] came out at 75.6. Moreover, in [8], the IC50 at 72 h was found to be 43.2 µM.
For `O=S(=O)(Oc1cccc(Cl)c1)C1CC2OC1C(c1ccc([Se]c3ccccc3)cc1)=C2c1ccc(O)cc1` (centres undefined) the same measures were 41.9 µM, 180 nM, greater than 31 µM, 97.8 and 17.6 µM.
Regarding `CC/C(=C(\c1ccccc1)c1ccc(OCCN(C)C)cc1)c1ccccc1`, the result in [9] and in [10] was Active.
`COc1ccc(OS(=O)(=O)C2CC3OC2C(c2ccc([Se]c4ccccc4)cc2)=C3c2ccc(O)cc2)cc1` (centres undefined): the IC50 in [4] amounted to 9.71 µM; in data set [6] it was 210 nM; in data set [7] it was 5.92 µM. In [5], the selectivity ratio stood at 138. Besides, the IC50 at 72 h in data set [8] came out at 29.1 µM.
Take `Cc1ccc(OS(=O)(=O)C2CC3OC2C(c2ccc([Se]c4ccccc4)cc2)=C3c2ccc(O)cc2)cc1` (centres undefined): the IC50 worked out at 8.49 µM in data set [4], 410 nM in data set [6] and 6.82 µM in data set [7]. In addition, the selectivity ratio in [5] was determined as 45.1. Further, the IC50 at 72 h in data set [8] was determined as 18.5 µM.
With `O=S(=O)(Oc1cccc([Se]c2ccccc2)c1)C1CC2OC1C(c1ccc(O)cc1)=C2c1ccc(O)cc1` (centres undefined), the IC50 was 25.6 µM in data set [4], 1710 nM in data set [6] and greater than 31 µM in [7]. The selectivity ratio in [5] worked out at 29.4. Further, in data set [8], the IC50 at 72 h was 50.3 µM.
With `O=S(=O)(Oc1ccc(C(F)(F)F)cc1)C1CC2OC1C(c1ccc([Se]c3ccccc3)cc1)=C2c1ccc(O)cc1` (centres undefined), the figures for the IC50 in data set [4] and in [6] were 27.5 µM and 450 nM, respectively. Besides, in data set [5], the selectivity ratio is 41.2. Moreover, the IC50 at 72 h in data set [8] was found to be 18.5 µM.
In the case of `O=S(=O)(Oc1cccc(Br)c1)C1CC2OC1C(c1ccc([Se]c3ccccc3)cc1)=C2c1ccc(O)cc1` (centres undefined), the IC50 is 19.2 µM in data set [4], 1360 nM in [6] and greater than 31 µM in data set [7]. Besides, the selectivity ratio in [5] worked out at 12.7. For the same compound, in [8], the IC50 at 72 h is 17.3 µM.
On the same counts, the results for `COc1cccc(OS(=O)(=O)C2CC3OC2C(c2ccc(O)cc2)=C3c2ccc([Se]c3ccccc3)cc2)c1` (centres undefined) are 10.5 µM, 660 nM, 4.8 µM, 27.1 and 17.9 µM.
For `O=S(=O)(Oc1cccc(O)c1)C1CC2OC1C(c1ccc(O)cc1)=C2c1ccc([Se]c2ccccc2)cc1` (centres undefined) the same measures were 7.13 µM, 70 nM, 2.88 µM, 106 and 7.41 µM.
Consider `O=S(=O)(Oc1ccccc1)C1CC2OC1C(c1ccc(O)cc1)=C2c1ccc(O)cc1` (centres undefined), for which the IC50 in [4] was 32.3 µM; in [6], 14600 nM; in data set [7], greater than 31 µM. In data set [11], the result was Active. In data set [5], the selectivity ratio is greater than 4.11. Moreover, the half-maximal inhibitory concentration (IC50) at 72 h in [8] is greater than 60 µM.
`O=S(=O)(Oc1ccc([Se]c2ccccc2)cc1)C1CC2OC1C(c1ccc(O)cc1)=C2c1ccc(O)cc1` (centres undefined): the IC50 in data set [4] was 31.6 µM; in [6], 800 nM; in data set [7] it was 20.5 µM. In addition, the selectivity ratio in [5] was greater than 75. Also, in [8], the IC50 at 72 h was greater than 60 µM.
With `CC/C(=C(\c1ccc(O)cc1)c1ccc(OCCN(C)C)cc1)c1ccccc1` [AFIMOXIFENE], the IC50 in [4] turned out to be 18.4 µM; in data set [7], 22.2 µM.
Take `Cc1ccc(OS(=O)(=O)C2CC3OC2C(c2ccc(O)cc2)=C3c2ccc([Se]c3ccccc3)cc2)cc1` (centres undefined): the IC50 in data set [4] was 8.05 µM; in [6] it was 3980 nM; in data set [7], 6.08 µM. Further, in data set [5], the selectivity ratio was 4.6. Besides, the IC50 at 72 h in data set [8] stood at 18.3 µM.
Take `O=S(=O)(Oc1ccc(Br)cc1)C1CC2OC1C(c1ccc([Se]c3ccccc3)cc1)=C2c1ccc(O)cc1` (centres undefined): the values for the IC50 in data set [4], in data set [6] and in [7] were 18.3 µM, 310 nM and 25 µM, respectively. Further, the selectivity ratio in data set [5] worked out at 90.8. In data set [8], the IC50 at 72 h was determined as 28.2 µM.
In the case of `O=S(=O)(Oc1ccccc1)C1CC2OC1C(c1ccc(O)cc1)=C2c1ccc([Se]c2ccccc2)cc1` (centres undefined), the IC50 is greater than 60 µM in data set [4] and 160 nM in data set [6]. In data set [5], the selectivity ratio was greater than 375. Further, the IC50 at 72 h in data set [8] is greater than 60 µM.
As for `O=S(=O)(Oc1ccc(O)cc1)C1CC2OC1C(c1ccc(O)cc1)=C2c1ccc([Se]c2ccccc2)cc1` (centres undefined), the figures for the IC50 in [4], in [6] and in data set [7] were 12.2 µM, 1960 nM and greater than 31 µM, respectively. Further, the selectivity ratio in data set [5] came out at 8.54. In addition, the IC50 at 72 h in [8] was 16.7 µM.
Turning to `COc1ccc(OS(=O)(=O)C2CC3OC2C(c2ccc(O)cc2)=C3c2ccc([Se]c3ccccc3)cc2)cc1` (centres undefined), the IC50 in data set [4] is greater than 60 µM; in [6] it was 7460 nM. For the same compound, the selectivity ratio in [5] is greater than 8.04. The IC50 at 72 h in data set [8] is greater than 60 µM.
For the compound `Cc1cccc(OS(=O)(=O)C2CC3OC2C(c2ccc([Se]c4ccccc4)cc2)=C3c2ccc(O)cc2)c1` (centres undefined), the values for the IC50 in data set [4], in data set [6] and in [7] were 12.6 µM, 120 nM and 8.42 µM, respectively. For the same compound, the selectivity ratio in data set [5] is 255. In addition, the IC50 at 72 h in data set [8] came out at 30.6 µM.
For `O=S(=O)(Oc1cccc(C(F)(F)F)c1)C1CC2OC1C(c1ccc([Se]c3ccccc3)cc1)=C2c1ccc(O)cc1` (centres undefined) the same measures were 16.8 µM, 540 nM, 8.76 µM, 75.9 and 41 µM.
With `O=S(=O)(Oc1cccc2ccccc12)C1CC2OC1C(c1ccc(O)cc1)=C2c1ccc([Se]c2ccccc2)cc1` (centres undefined), the IC50 turned out to be 45.5 µM in data set [4] and 1130 nM in data set [6]. Also, in data set [5], the selectivity ratio was greater than 53.1. In addition, the IC50 at 72 h in [8] is greater than 60 µM.
Regarding `O=S(=O)(Oc1ccc(Cl)cc1)C1CC2OC1C(c1ccc([Se]c3ccccc3)cc1)=C2c1ccc(O)cc1` (centres undefined), the IC50 in [4] came out at 11 µM; in data set [6] it was 140 nM; in [7] it was 6.88 µM. For the same compound, in data set [5], the selectivity ratio was 186. In data set [8], the IC50 at 72 h was determined as 26.1 µM.
On the same counts, the results for `O=S(=O)(Oc1ccc(C(F)(F)F)cc1)C1CC2OC1C(c1ccc(O)cc1)=C2c1ccc([Se]c2ccccc2)cc1` (centres undefined) are 22 µM, 150 nM, greater than 31 µM, 94.3 and 14.1 µM.
For `O=S(=O)(Oc1ccc(Cl)cc1)C1CC2OC1C(c1ccc(O)cc1)=C2c1ccc([Se]c2ccccc2)cc1` (centres undefined), the IC50 in data set [4] was determined as 11 µM; in [6], 370 nM; in data set [7], 6.64 µM. In data set [5], the selectivity ratio is 86.4. Further, the IC50 at 72 h in data set [8] was 32 µM.
